Test results: US20210179655A1, “Prodrugs of a JAK Inhibitor Compound for Treatment of Gastrointestinal Inflammatory Disease” (THERAVANCE BIOPHARMA R&D IP, LLC, priority 2015, published 2021)

Legend:
[1] = Oral pharmacokinetics of compound 1 in cynomolgus monkey; assay type: in vivo; conditions: oral administration of the prodrug
TYK2 = TYK2 (Homo sapiens, UniProt P29597); assay: Biochemical JAK kinase assay (LanthaScreen) Tyk2
Procedure: (§1) A panel of four LanthaScreen JAK biochemical assays (JAK1, 2, 3 and Tyk2) were carried in a common kinase reaction buffer (50 mM HEPES, pH 7.5, 0.01% Brij-35, 10 mM MgCl2, and 1 mM EGTA). Recombinant GST-tagged JAK enzymes and a GFP-tagged STAT1 peptide substrate were obtained from Life Technologies.
(§2) Serially diluted compounds were pre-incubated with each of the four JAK enzymes and the substrate in white 384-well microplates (Corning) at ambient temperature for 1 h. ATP was subsequently added to initiate the kinase reactions in 10 μL total volume, with 1% DMSO. […] The JAK1 kinase activity was also tested at 1 mM ATP concentration. […] The plates were allowed to incubate at ambient temperature for 1 h before being read on the EnVision reader (Perkin Elmer).
(§3) For dose-response analysis, percent inhibition data were plotted vs. compound concentrations, and IC50 values were determined from a 4-parameter robust fit model with the Prism software (GraphPad Software). Results were expressed as pIC50 (negative logarithm of IC50) and subsequently converted to pKi (negative logarithm of dissociation constant, Ki) using the Cheng-Prusoff equation.

[2] = tested on: Janus kinase (JAK) family of enzymes, non-JAK enzymes, G-protein coupled receptors, ion channels and transporters; assay: Affinity/potency profiling at JAK, non-JAK enzymes, receptors, ion channels and transporters
[3] = Rat colon fecal homogenate stability; assay type: in vitro ADME; conditions: male, rat colon fecal homogenate supernatant, 10 μM, read-out: T½ (In vitro colonic stability, loss of pro-drug)
Procedure: The objective of this study was to determine the stability of the present compounds in rat colon fecal homogenate, i.e. the half-life for decomposition in the presence of the β-glucuronidase in rat colon feces.
Following sacrifice of a naïve male rat (˜300 g) by cardiac puncture exsanguination, the colon was ligated and removed to an anaerobic chamber (AS-580, Anaerobe Systems). The fecal content was removed within the chamber and was diluted 1:10 (1 gram to 9 mL phosphate buffer) and then homogenized using a handheld Omni Tissue Master. The fecal homogenate was centrifuged at 2000 g for 10 min to remove bulk and the supernatant was removed and used for the incubations.
Test articles and a positive control (sulfasalazine) were prepared as 10 mM DMSO stocks. The final substrate concentration of each assay was 10 μM (30 μM for compound 5). Reactions were started by adding a 5 μL aliquot of diluted test compound stock into 300 μL of rat fecal supernatant-homogenate. At 0, 15, 30, 60, 90, and 120 min post reaction initiation, a 50 μL aliquot was removed into 200 μL of acetonitrile with 3% formic acid and an internal standard molecule. All samples were centrifuged at 2000 g for 10 min after which 50 μL of supernatant was diluted into 150 μL of water for analysis on an LC-MS system. In vitro half-lives for loss of pro-drug were calculated as follows: (T½=0.693/elimination rate constant).

[4] = Metabolic stability of comparison compounds in rat colon content; assay type: in vitro ADME; conditions: 10 μM in rat colonic content, up to 120 min
Procedure: Colonic fecal content was harvested from a naïve male Sprague Dawley rat and was diluted 1:10 (1 gram to 9 mL phosphate buffer) and then homogenized using a handheld Omni Tissue Master. […] A 5 μL aliquot of diluted test compound was spiked into 300 μL of rat colonic content homogenate to begin the reaction at 37° C. Aliquots (50 μL) were removed from the incubation at the following time points (0, 15, 50, 85, and 120 min) and added into 200 μL of ACN with 3% formic acid and an internal standard molecule. […] All samples were centrifuged at 2000×g for 10 min after which 50 μL of supernatant was diluted into 150 μL of water and analyzed using a Thermo Q-Exactive LC-MS system. GraphPad Prism and Microsoft Excel were used to tabulate and plot the data.

splenic NK cells = assay: Immunosuppression effects in mouse splenic natural killer (NK) cells; assay type: in vivo
Procedure: Adult male Balb/C mice (12-14 weeks of age) from Harlan were used for the study. […] Spleens were harvested 30 min or 3 h post last dose and crushed immediately for cell subtype staining. Prior to fixation, fluorophore-labelled antibodies for CD19 (FITC; B cells), CD3e (PE; pan T cells) and DX5 (APC; NK cells) were incubated with splenocyte samples from each animal to allow for simultaneous, multiple subtype % analysis on the flow cytometer. The number of total spleen cells for each animal was measured by Scepter™ 2.0 Handheld Automated Cell Counter.
The absolute number of lymphocyte subtype population (e.g., splenic B, T and NK cells) was calculated from the percentage of each subtype times total spleen cells for each animal. A one way ANOVA, with Dunnett's post hoc test, was used to compare the splenic lymphocytes number of the vehicle and test compound groups. The a level was set at p<0.05. Data were presented as the mean SEM for each group.

JAK3 = target: T1, JAK3 (Homo sapiens, UniProt P52333); assay: Biochemical JAK kinase assay (LanthaScreen) JAK3
T1 sequence (P52333 1-1124): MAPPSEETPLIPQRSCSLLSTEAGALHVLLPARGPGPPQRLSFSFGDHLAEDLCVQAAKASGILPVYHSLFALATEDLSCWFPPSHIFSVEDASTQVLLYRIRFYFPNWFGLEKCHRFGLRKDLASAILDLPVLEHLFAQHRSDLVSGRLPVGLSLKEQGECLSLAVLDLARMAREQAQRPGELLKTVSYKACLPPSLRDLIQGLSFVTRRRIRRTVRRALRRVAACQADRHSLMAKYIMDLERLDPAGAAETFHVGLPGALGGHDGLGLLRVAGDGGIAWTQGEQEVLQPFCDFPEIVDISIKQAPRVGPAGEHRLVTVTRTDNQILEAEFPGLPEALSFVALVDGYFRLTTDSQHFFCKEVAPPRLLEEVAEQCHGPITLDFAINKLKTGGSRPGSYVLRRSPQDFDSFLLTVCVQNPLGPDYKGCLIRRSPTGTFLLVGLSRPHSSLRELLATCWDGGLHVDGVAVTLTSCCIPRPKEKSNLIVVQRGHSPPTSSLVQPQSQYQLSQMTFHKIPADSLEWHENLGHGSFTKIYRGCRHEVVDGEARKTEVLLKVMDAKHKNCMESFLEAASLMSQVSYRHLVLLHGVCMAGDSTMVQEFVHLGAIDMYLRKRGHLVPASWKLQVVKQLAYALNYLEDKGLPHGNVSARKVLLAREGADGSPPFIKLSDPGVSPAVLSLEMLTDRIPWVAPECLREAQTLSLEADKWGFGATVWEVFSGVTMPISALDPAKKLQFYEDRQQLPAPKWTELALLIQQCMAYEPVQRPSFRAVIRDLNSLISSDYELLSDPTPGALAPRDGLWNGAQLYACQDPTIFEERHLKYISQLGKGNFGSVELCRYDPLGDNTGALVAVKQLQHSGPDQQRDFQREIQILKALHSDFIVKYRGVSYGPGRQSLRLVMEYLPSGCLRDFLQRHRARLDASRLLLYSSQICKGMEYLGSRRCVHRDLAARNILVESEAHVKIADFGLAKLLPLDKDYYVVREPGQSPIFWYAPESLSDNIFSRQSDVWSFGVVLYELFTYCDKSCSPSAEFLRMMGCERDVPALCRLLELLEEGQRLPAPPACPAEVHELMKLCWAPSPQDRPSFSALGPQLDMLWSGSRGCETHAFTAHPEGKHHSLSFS
Procedure: as §1, §2, §3

β-glucuronidase = β-glucuronidase (Escherichia coli, UniProt P05804); assay: Metabolic stability of compound 1 in β-glucuronidase from E. coli; assay type: in vitro ADME; conditions: purified β-glucuronidase from E. coli, β-glucuronidase 100 Units/mL, 37° C.
β-glucuronidase, sequence (P05804 whole entry): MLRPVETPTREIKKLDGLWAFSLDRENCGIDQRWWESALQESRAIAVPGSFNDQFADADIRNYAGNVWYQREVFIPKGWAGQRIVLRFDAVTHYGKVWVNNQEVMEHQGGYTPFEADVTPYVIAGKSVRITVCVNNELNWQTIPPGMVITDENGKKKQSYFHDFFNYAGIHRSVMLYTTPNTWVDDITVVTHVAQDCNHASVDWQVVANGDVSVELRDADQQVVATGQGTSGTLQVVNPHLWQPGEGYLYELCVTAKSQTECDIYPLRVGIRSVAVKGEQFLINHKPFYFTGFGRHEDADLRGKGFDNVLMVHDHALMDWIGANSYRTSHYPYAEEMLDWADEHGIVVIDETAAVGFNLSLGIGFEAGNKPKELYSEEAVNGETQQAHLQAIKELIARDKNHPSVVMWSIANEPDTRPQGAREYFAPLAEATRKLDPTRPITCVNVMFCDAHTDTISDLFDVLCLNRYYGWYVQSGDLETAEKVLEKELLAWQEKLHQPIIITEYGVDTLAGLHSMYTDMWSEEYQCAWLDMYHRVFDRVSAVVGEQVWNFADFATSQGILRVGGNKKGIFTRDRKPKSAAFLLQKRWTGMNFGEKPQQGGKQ
Procedure: The incubations were quenched at timepoints 0, 1, 2, 3, 5, 10, 15, 30, 60, and 90 min by addition of 100 μL of ACN. Samples were diluted with water+1% formic acid (4×) and analyzed using a Thermo Q-Exactive™ LC-MS system.

TYK2, sequence (P29597 whole entry): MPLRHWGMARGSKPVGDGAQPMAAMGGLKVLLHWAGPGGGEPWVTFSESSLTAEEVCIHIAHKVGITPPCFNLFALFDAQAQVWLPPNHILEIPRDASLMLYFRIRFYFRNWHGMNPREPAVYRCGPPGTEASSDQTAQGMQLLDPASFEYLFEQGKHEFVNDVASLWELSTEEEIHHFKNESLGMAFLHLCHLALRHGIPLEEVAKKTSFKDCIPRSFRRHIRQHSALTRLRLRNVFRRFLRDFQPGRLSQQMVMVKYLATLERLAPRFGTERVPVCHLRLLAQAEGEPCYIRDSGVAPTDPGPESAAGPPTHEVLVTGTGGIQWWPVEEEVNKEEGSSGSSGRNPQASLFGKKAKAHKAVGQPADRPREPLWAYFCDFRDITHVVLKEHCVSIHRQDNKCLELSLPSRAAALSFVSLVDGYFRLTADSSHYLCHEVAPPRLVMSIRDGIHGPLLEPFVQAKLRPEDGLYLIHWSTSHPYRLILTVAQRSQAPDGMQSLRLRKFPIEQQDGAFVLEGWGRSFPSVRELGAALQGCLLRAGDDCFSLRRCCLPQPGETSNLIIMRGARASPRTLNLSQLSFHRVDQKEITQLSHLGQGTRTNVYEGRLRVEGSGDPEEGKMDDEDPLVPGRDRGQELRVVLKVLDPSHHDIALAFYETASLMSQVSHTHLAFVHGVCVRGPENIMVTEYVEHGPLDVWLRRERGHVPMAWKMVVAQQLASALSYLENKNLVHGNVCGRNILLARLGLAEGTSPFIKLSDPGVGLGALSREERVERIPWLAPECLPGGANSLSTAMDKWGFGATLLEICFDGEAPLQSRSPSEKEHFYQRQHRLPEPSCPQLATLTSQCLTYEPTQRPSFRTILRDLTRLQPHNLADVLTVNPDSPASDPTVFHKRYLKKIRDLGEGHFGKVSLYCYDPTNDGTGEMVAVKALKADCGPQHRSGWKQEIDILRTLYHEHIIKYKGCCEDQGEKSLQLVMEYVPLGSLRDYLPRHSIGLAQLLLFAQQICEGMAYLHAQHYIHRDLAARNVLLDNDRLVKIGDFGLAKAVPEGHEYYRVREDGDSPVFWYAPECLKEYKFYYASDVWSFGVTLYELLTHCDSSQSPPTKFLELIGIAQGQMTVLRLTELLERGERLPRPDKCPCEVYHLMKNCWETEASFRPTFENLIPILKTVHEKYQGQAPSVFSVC

C[C@@H]1CCN(C(=O)CC#N)C[C@@H]1N(C)c1ncnc2c1ccn2C(=O)N(C)CCN(C)C(=O)OCc1ccc(O[C@@H]2O[C@H](C(=O)O)[C@@H](O)[C@H](O)[C@H]2O)c([N+](=O)[O-])c1 [Compound 1, (2S,3S,4S,5R,6S)-6-(4-((((2-(4-(((3R,4R)-1-(2-cyanoacetyl)-4-methylpiperidin-3-yl)(methyl)amino)-N-methyl-7H-pyrrolo[2,3-d]pyrimidine-7-carboxamido)ethyl)(methyl)carbamoyl)oxy)methyl)-2-nitrophenoxy)-3,4,5-trihydroxytetrahydro-2H-pyran-2-carboxylic acid]
increase in tofacitinib concentration in cecum, proximal, and distal colon tissue versus oral tofacitinib [1]: five- to seven-fold
Ki (TYK2): > 1000 nM
affinity for, or potency at, JAK enzymes, non-JAK enzymes, GPCRs, ion channels and transporters [2]: no significant affinity for, or potency at
half-life at 10 μM [3]: 1 to 15 min
generation of active metabolite from the pro-drug [4]: generated measurable levels
splenic NK cell counts (splenic NK cells; PO (BID) doses up to 10 mg/kg (maximum dose tested), three days, naïve mice): unaffected
Systemic functional activity (splenic NK depletion) (splenic NK cells; mouse, oral dosing for three days): >10 mg/kg
Ki (JAK3): > 158 nM
half-life at 30 μM (β-glucuronidase): < 5 min
